In ChEMBL document CHEMBL4196004, “Discovery of novel mifepristone derivatives via suppressing KLF5 expression for the treatment of triple-negative breast cancer” (Eur J Med Chem, 2018):
The source made the active and inactive calls. No cut-off for these calls is given here.

Key:
[1] = test system: SUM149PT; test: Antiproliferative activity against human SUM149PT cells after 48 hrs by SRB assay; format: functional, cell-based
[2] = test system: HCC1937; test: Antiproliferative activity against human HCC1937 cells after 48 hrs by SRB assay; format: functional, cell-based; conditions: HCC1937, 48 h
[3] = test system: SUM149PT; test: Induction of PARP cleavage in human SUM149PT cells after 24 hrs by Western blot analysis; format: functional, cell-based
[4] = test system: Homo sapiens; test: Antitumor activity against human UM1 cells implanted in Balb/C nude mouse at 1 mg, ip qd for 4 weeks; format: functional, organism-based
[5] = test system: Rattus norvegicus; test: AUC (0 to t) in Sprague-Dawley rat at 30 mg/kg administered via oral gavage by HPLC analysis; format: ADME, organism-based; conditions: in vivo
[6] = Elimination half life in Sprague-Dawley rat at 30 mg/kg administered via oral gavage by HPLC analysis; format: ADME, organism-based; conditions: in vivo, read-out: beta t1/2 (converted)
[7] = Cmax in Sprague-Dawley rat at 30 mg/kg administered via oral gavage by HPLC analysis; format: ADME, organism-based; parameters: dose 30 mg/kg, route oral; conditions: in vivo
[8] = Tmax in Sprague-Dawley rat at 30 mg/kg administered via oral gavage by HPLC analysis; format: ADME, organism-based; conditions: in vivo
[9] = test system: HCC1937; test: Induction of PARP cleavage in human HCC1937 cells after 24 hrs by Western blot analysis; format: functional, cell-based
[10] = test system: SUM149PT; test: Inhibition of KLF5 expression levels in human SUM149PT cells after 24 hrs by Western blot analysis; format: functional, cell-based
[11] = test system: Rattus norvegicus; test: AUC (0 to infinity) in Sprague-Dawley rat at 30 mg/kg administered via oral gavage by HPLC analysis; format: ADME, organism-based; parameters: dose 30 mg/kg, route oral, time infinity; conditions: in vivo
[12] = test system: SUM149PT; test: Cell cycle arrest in human SUM149PT cells assessed as decrease in cells at S phase at 5 to 10 uM after 24 hrs by propidium iodide staining-based flow cytometric analysis; format: functional
[13] = test system: Mus musculus; test: Acute toxicity in KM mouse assessed as loss of body weight at 400 mg/kg, po administered as single dose and measured every 3 days; format: organism-based; conditions: in vivo, 72 h
[14] = test system: SUM149PT; test: Cell cycle arrest in human SUM149PT cells assessed as increase in cells at G1 phase after 24 hrs by propidium iodide staining-based flow cytometric analysis; format: functional
[15] = test system: Mus musculus; test: Toxicity in Balb/C nude mouse implanted with human UM1 cells assessed as loss of body weight at 1 mg, ip qd for 4 weeks; format: organism-based; conditions: in vivo, 672 h
[16] = test system: Mus musculus; test: Acute toxicity in KM mouse assessed as behaviour change at 400 mg/kg, po administered as single dose; format: organism-based; conditions: in vivo
[17] = test system: HCC1937; test: Inhibition of KLF5 expression levels in human HCC1937 cells after 24 hrs by Western blot analysis; format: functional, cell-based
[18] = test system: SUM149PT; test: Cell cycle arrest in human SUM149PT cells assessed as decrease in cells at S phase at 20 uM after 24 hrs by propidium iodide staining-based flow cytometric analysis; format: functional
[19] = test system: SUM149PT; test: Cell cycle arrest in human SUM149PT cells assessed as increase in cells at G1 phase at 20 uM after 24 hrs by propidium iodide staining-based flow cytometric analysis; format: functional

## CC#C[C@]1(O)CC[C@H]2[C@@H]3CCC4=CC(=O)CCC4=C3[C@@H](c3ccc(N(C)C(=O)c4ccc(Cl)c(F)c4)cc3)C[C@@]21C
[1]
  IC50: > 20 µM

## CC#C[C@]1(O)CC[C@H]2[C@@H]3CCC4=CC(=O)CCC4=C3[C@@H](c3ccc(N(C)C(C)=O)cc3)C[C@@]21C
[1]
  IC50: > 20 µM
[2]
  IC50: > 20 µM

## CC#C[C@]1(O)CC[C@H]2[C@@H]3CCC4=CC(=O)CCC4=C3[C@@H](c3ccc(N(C)C(=O)c4ccc(OC)c(Cl)c4)cc3)C[C@@]21C
[1]
  IC50: > 20 µM

## CC#C[C@]1(O)CC[C@H]2[C@@H]3CCC4=CC(=O)CCC4=C3[C@@H](c3ccc(N(C)C(=O)c4nccs4)cc3)C[C@@]21C
[1]
  IC50: > 20 µM

## CC#C[C@]1(O)CC[C@H]2[C@@H]3CCC4=CC(=O)CCC4=C3[C@@H](c3ccc(N(C)C(=O)c4ccc(Cl)c(Cl)c4)cc3)C[C@@]21C
[3]
  Activity: Dose-dependent effect
[1]
  IC50: 3.6 µM
[4]
  Activity: Active
[5]
  AUCt: 2.45 mg/L/h
[6]
  half-life: 2.88 h
[7]
  Cmax: 550 ng/mL
[2]
  IC50: 7.9 µM
[8]
  Tmax: 2.17 h
[9]
  Activity: Dose-dependent effect
[10]
  inhibition: Dose-dependent effect
[11]
  AUC: 2910 ng·h/mL
[12]
  Activity: Active
[13]
  Activity: Non-Toxic
[14]
  Activity: Dose-dependent effect
[15]
  Activity: Non-Toxic
[16]
  Activity: Non-Toxic
[17]
  inhibition: Dose-dependent effect

## CC#C[C@]1(O)CC[C@H]2[C@@H]3CCC4=CC(=O)CCC4=C3[C@@H](c3ccc(N(C)C(=O)Cc4ccccc4)cc3)C[C@@]21C
[1]
  IC50: 7 µM
[2]
  IC50: 9 µM

## CC#C[C@]1(O)CC[C@H]2[C@@H]3CCC4=CC(=O)CCC4=C3[C@@H](c3ccc(N(C)C(=O)c4ccc(Cl)cc4)cc3)C[C@@]21C
[1]
  IC50: 16.2 µM
[2]
  IC50: 9.7 µM

## CC#C[C@]1(O)CC[C@H]2[C@@H]3CCC4=CC(=O)CCC4=C3[C@@H](c3ccc(N(C)C(=O)c4ccc(C)cc4)cc3)C[C@@]21C
[1]
  IC50: 5 µM
[2]
  IC50: 9.1 µM

## CC#C[C@]1(O)CC[C@H]2[C@@H]3CCC4=CC(=O)CCC4=C3[C@@H](c3ccc(N(C)S(=O)(=O)c4ccc(C)cc4)cc3)C[C@@]21C
[1]
  IC50: > 20 µM
[2]
  IC50: > 20 µM

## CC#C[C@]1(O)CC[C@H]2[C@@H]3CCC4=CC(=O)CCC4=C3[C@@H](c3ccc(N(C)C(=O)c4cccc(C)c4)cc3)C[C@@]21C
[1]
  IC50: 5 µM
[2]
  IC50: 9 µM

## CC#C[C@]1(O)CC[C@H]2[C@@H]3CCC4=CC(=O)CCC4=C3[C@@H](c3ccc(N(C)C(=O)c4cc(Cl)ccc4F)cc3)C[C@@]21C
[1]
  IC50: > 20 µM

## CC#C[C@]1(O)CC[C@H]2[C@@H]3CCC4=CC(=O)CCC4=C3[C@@H](c3ccc(N(C)C(=O)c4ccccn4)cc3)C[C@@]21C
[1]
  IC50: > 20 µM
[2]
  IC50: > 20 µM

## CC#C[C@]1(O)CC[C@H]2[C@@H]3CCC4=CC(=O)CCC4=C3[C@@H](c3ccc(N(C)C(=O)c4ccccc4)cc3)C[C@@]21C
[1]
  IC50: 10.5 µM
[2]
  IC50: 14.7 µM

## CC#C[C@]1(O)CC[C@H]2[C@@H]3CCC4=CC(=O)CCC4=C3[C@@H](c3ccc(N(C)S(=O)(=O)c4ccccc4)cc3)C[C@@]21C
[1]
  IC50: > 20 µM
[2]
  IC50: > 20 µM

## CC#C[C@]1(O)CC[C@H]2[C@@H]3CCC4=CC(=O)CCC4=C3[C@@H](c3ccc(N(C)C(=O)c4ccccc4Cl)cc3)C[C@@]21C
[1]
  IC50: > 20 µM
[2]
  IC50: 17.4 µM

## CC#C[C@]1(O)CC[C@H]2[C@@H]3CCC4=CC(=O)CCC4=C3[C@@H](c3ccc(N(C)C(=O)c4ccc(C)c(C)c4)cc3)C[C@@]21C
[1]
  IC50: 5.6 µM
[2]
  IC50: 6.1 µM

## CC#C[C@]1(O)CC[C@H]2[C@@H]3CCC4=CC(=O)CCC4=C3[C@@H](c3ccc(N(C)C(=O)c4cccs4)cc3)C[C@@]21C
[1]
  IC50: 12.5 µM

## CC#C[C@]1(O)CC[C@H]2[C@@H]3CCC4=CC(=O)CCC4=C3[C@@H](c3ccc(N(C)C(=O)c4ccc(C(C)C)cc4)cc3)C[C@@]21C
[1]
  IC50: 4.2 µM
[2]
  IC50: 4.2 µM

## CC#C[C@]1(O)CC[C@H]2[C@@H]3CCC4=CC(=O)CCC4=C3[C@@H](c3ccc(N(C)C(=O)c4cnccn4)cc3)C[C@@]21C
[1]
  IC50: > 20 µM

## COc1cccc2c1C(=O)c1c(O)c3c(c(O)c1C2=O)C[C@@](O)(C(=O)CO)C[C@@H]3O[C@H]1C[C@H](N)[C@H](O)[C@H](C)O1 [DOXORUBICIN]
[1]
  IC50: 0.36 µM
[2]
  IC50: 0.44 µM

## CC#C[C@]1(O)CC[C@H]2[C@@H]3CCC4=CC(=O)CCC4=C3[C@@H](c3ccc(N(C)C(=O)c4ccc(C(C)(C)C)cc4)cc3)C[C@@]21C
[1]
  IC50: 3.5 µM
[2]
  IC50: 4.2 µM

## CC#C[C@]1(O)CC[C@H]2[C@@H]3CCC4=CC(=O)CCC4=C3[C@@H](c3ccc(N(C)C(=O)c4ccc(-c5ccccc5)cc4)cc3)C[C@@]21C
[1]
  IC50: 16 µM
[2]
  IC50: > 20 µM

## CC#C[C@]1(O)CC[C@H]2[C@@H]3CCC4=CC(=O)CCC4=C3[C@@H](c3ccc(N(C)C)cc3)C[C@@]21C [MIFEPRISTONE]
[3]
  Activity: Dose-dependent effect
[1]
  IC50: 15 µM
[4]
  Activity: Active
[5]
  AUCt: 1.97 mg/L/h
[6]
  half-life: 3.02 h
[7]
  Cmax: 360 ng/mL
[2]
  IC50: > 20 µM
[8]
  Tmax: 3.38 h
[9]
  Activity: Dose-dependent effect
[10]
  inhibition: Dose-dependent effect
[11]
  AUC: 2420 ng·h/mL
[18]
  Activity: Active
[19]
  Activity: inactive
[15]
  Activity: Non-Toxic
[17]
  inhibition: Dose-dependent effect

## CC#C[C@]1(O)CC[C@H]2[C@@H]3CCC4=CC(=O)CCC4=C3[C@@H](c3ccc(N(C)C(=O)c4cccc(Cl)c4)cc3)C[C@@]21C
[1]
  IC50: 14.3 µM
[2]
  IC50: 10.6 µM

## CC#C[C@]1(O)CC[C@H]2[C@@H]3CCC4=CC(=O)CCC4=C3[C@@H](c3ccc(N(C)C(=O)c4cc(Cl)cc(Cl)c4)cc3)C[C@@]21C
[1]
  IC50: 9 µM

## CC#C[C@]1(O)CC[C@H]2[C@@H]3CCC4=CC(=O)CCC4=C3[C@@H](c3ccc(N(C)C(=O)c4ccc(F)c(Cl)c4)cc3)C[C@@]21C
[1]
  IC50: 9 µM

## CC#C[C@]1(O)CC[C@H]2[C@@H]3CCC4=CC(=O)CCC4=C3[C@@H](c3ccc(N(C)C(=O)c4cncs4)cc3)C[C@@]21C
[1]
  IC50: > 20 µM

## CC#C[C@]1(O)CC[C@H]2[C@@H]3CCC4=CC(=O)CCC4=C3[C@@H](c3ccc(NC)cc3)C[C@@]21C [DESMETHYLMIFEPRISTONE]
[1]
  IC50: > 20 µM
[2]
  IC50: > 20 µM

## CC#C[C@]1(O)CC[C@H]2[C@@H]3CCC4=CC(=O)CCC4=C3[C@@H](c3ccc(N(C)C(=O)c4ccccc4OC)cc3)C[C@@]21C
[1]
  IC50: > 20 µM

## CC#C[C@]1(O)CC[C@H]2[C@@H]3CCC4=CC(=O)CCC4=C3[C@@H](c3ccc(N(C)C(=O)c4ccc(OC)cc4)cc3)C[C@@]21C
[1]
  IC50: 12 µM

## CC#C[C@]1(O)CC[C@H]2[C@@H]3CCC4=CC(=O)CCC4=C3[C@@H](c3ccc(N(C)C(=O)c4ccncc4)cc3)C[C@@]21C
[1]
  IC50: > 20 µM
[2]
  IC50: > 20 µM

## CC#C[C@]1(O)CC[C@H]2[C@@H]3CCC4=CC(=O)CCC4=C3[C@@H](c3ccc(N(C)C(=O)c4cccc(OC)c4)cc3)C[C@@]21C
[1]
  IC50: 18 µM

## CC#C[C@]1(O)CC[C@H]2[C@@H]3CCC4=CC(=O)CCC4=C3[C@@H](c3ccc(N(C)C(=O)c4ccc(C)c(Cl)c4)cc3)C[C@@]21C
[1]
  IC50: 4.7 µM

## CC#C[C@]1(O)CC[C@H]2[C@@H]3CCC4=CC(=O)CCC4=C3[C@@H](c3ccc(N(C)C(=O)c4ccc5ccccc5c4)cc3)C[C@@]21C
[1]
  IC50: 5 µM
[2]
  IC50: 6.1 µM

## CC#C[C@]1(O)CC[C@H]2[C@@H]3CCC4=CC(=O)CCC4=C3[C@@H](c3ccc(N(C)C(=O)c4ccc(Cl)c(C(F)(F)F)c4)cc3)C[C@@]21C
[1]
  IC50: > 20 µM
